The text below walks through data of US20170266152A1, “PHARMACEUTICAL COMPOSITION, METHODS FOR TREATING AND USES THEREOF” (Boehringer Ingelheim International GmbH, priority 2016, published 2017).

Each structure is given as a SMILES string.

For data set [1] the following is noted: crystalline form (WO 2006/117359, WO 2011/039107); cited from earlier work.
The conditions of data set [2]: patients with type 2 diabetes mellitus and high cardiovascular risk; cited from earlier work.
For data set [3] the following is noted: Cherney et al. 2014; cited from earlier work.
Data set [4] can be described thus: Clinical studies of haemodynamic, vascular and autonomic cardiovascular effects of empagliflozin. Type of data set: in vivo. The text has this:
It may be assumed that altered glucose and sodium gradients within the kidney may generate a sympathoinhibitory afferent renal nerve signal. The lack of sympathetic activation may contribute to a beneficial cardiovascular and renal profile of empagliflozin (cardiorenal axis). Based on clinical and non-clinical studies including mechanistic considerations, such as the effect of empagliflozin on human autonomic cardiovascular regulation, the use of empagliflozin in the treatment and prevention of certain diseases and conditions, in particular in chronic heart failure, acute heart failure and chronic kidney disease, is described hereinbefore and hereinafter.

The conditions of data set [5]: metformin on its own, in the diabetic; cited from earlier work.

`OC[C@H]1O[C@@H](c2ccc(Cl)c(Cc3ccc(O[C@H]4CCOC4)cc3)c2)[C@H](O)[C@@H](O)[C@@H]1O` [empagliflozin, 1-chloro-4-(β-D-glucopyranos-1-yl)-2-[4-((S)-tetrahydrofuran-3-yloxy)-benzyl]-benzene]: in data set [1], the physico-chemical stability result is recorded as “physico-chemically stable” and the solubility result is listed as “good solubility properties”. The “risk of hospitalization for heart failure” value in data set [2] was “reduced the risk”. Besides, in data set [3], the arterial stiffness entry was “reduced arterial stiffness”, the direct vascular effects result is “direct vascular effects” and the diuretic effect entry was “shows a diuretic effect”. Besides, the reflex-mediated sympathetic activation result in data set [4] (in contrast to increases observed with diuretics) is reported as “not being associated with clinically relevant reflex-mediated sympathetic activation”. In data set [4] (treatment with empagliflozin), the blood pressure result is on record as “blood pressure reductions”; the heart rate result was “without clinically relevant changes of the heart rate”; the “rate pressure product (RPP), surrogate marker of cardiac oxygen demand” value was “improving rate pressure product”.

In the case of `CN(C)C(=N)N=C(N)N` [metformin], the “average improvement in the HbA1c value” in data set [5] was 1.0-1.5%.
